Results on two molecules are retold here after publication PMC2650797 (Carcinogenesis, 2009).

This assay concerns the target T1, Cytochrome P450 (CYP) 1A2 (Homo sapiens, UniProt P05177).
T1 sequence (P05177 2-516): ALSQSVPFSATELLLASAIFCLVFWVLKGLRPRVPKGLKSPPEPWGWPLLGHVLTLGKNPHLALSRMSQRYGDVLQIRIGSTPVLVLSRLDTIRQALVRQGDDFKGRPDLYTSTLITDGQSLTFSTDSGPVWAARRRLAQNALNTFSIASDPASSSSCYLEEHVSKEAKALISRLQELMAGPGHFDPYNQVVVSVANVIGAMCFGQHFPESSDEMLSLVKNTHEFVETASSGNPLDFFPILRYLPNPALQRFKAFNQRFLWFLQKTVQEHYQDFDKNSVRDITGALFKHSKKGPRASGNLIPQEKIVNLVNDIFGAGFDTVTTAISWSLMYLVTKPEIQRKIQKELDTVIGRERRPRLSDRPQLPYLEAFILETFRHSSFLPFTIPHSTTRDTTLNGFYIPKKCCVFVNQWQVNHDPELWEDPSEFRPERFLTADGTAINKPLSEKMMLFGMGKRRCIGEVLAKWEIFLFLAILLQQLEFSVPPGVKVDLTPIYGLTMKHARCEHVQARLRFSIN
As to the kind of experiment: 7-ethoxyresorufin O-deethylase fluorescence inhibition assay. It counts as biochemical.

In the case of `Cc1c(-c2cnccn2)ssc1=S` [OLT, 4-methyl-5-pyrazinyl-3H-1,2-dithiole-3-thione], the 50% inhibitory concentration (IC50) was around 0.2 µM.

Turning to `CC(C)(C)c1cc(=S)ss1` [TBD, 5-tert-butyl-3H-1,2-dithiole-3-thione], the IC50 is around 12.8 µM.
